Laboratory results from the NIST ThermoML archive (doi:10.1021/acs.jced.5b00562).

Settings: for specific volume: Gas, isochoric method; for mass density: Liquid, Vibrating tube method

F/C=C(\F)C(F)(F)F [(Z)-1,2,3,3,3-pentafluoro-1-propene]
Settings | mass density [kg/m3] | specific volume [m3/kg]
323.15 K, 169.7 kPa | – | 0.116
323.15 K, 245.6 kPa | – | 0.079
323.15 K, 1296 kPa | 1172.9 | –
323.15 K, 7500 kPa | 1226.8 | –
323.15 K, 10001 kPa | 1243.3 | –
323.15 K, 12499 kPa | 1257.6 | –
323.15 K, 15000 kPa | 1270.8 | –
323.15 K, 17499 kPa | 1282.9 | –
323.15 K, 19999 kPa | 1294 | –
323.15 K, 22500 kPa | 1304.4 | –
323.15 K, 25001 kPa | 1314.1 | –
323.15 K, 27500 kPa | 1323.2 | –
323.15 K, 30001 kPa | 1331.8 | –
323.15 K, 32501 kPa | 1340 | –
323.15 K, 35001 kPa | 1347.7 | –
323.16 K, 466.1 kPa | – | 0.04
323.16 K, 1499 kPa | 1175.1 | –
323.16 K, 2000 kPa | 1180.3 | –
323.16 K, 2502 kPa | 1185.5 | –
323.16 K, 4998 kPa | 1207.9 | –
328.07 K, 566.8 kPa | – | 0.033
328.11 K, 360.1 kPa | – | 0.054
328.14 K, 669.2 kPa | – | 0.027
328.15 K, 172.6 kPa | – | 0.116
328.15 K, 249.7 kPa | – | 0.079
328.15 K, 475.1 kPa | – | 0.04
333.1 K, 365.4 kPa | – | 0.054
333.1 K, 578.2 kPa | – | 0.033
333.13 K, 682.7 kPa | – | 0.027
333.15 K, 174.9 kPa | – | 0.116
333.15 K, 253.9 kPa | – | 0.079
333.15 K, 483.9 kPa | – | 0.04
333.15 K, 1502 kPa | 1124.9 | –
333.15 K, 1999 kPa | 1132 | –
333.15 K, 2500 kPa | 1138.6 | –
333.15 K, 5000 kPa | 1166.8 | –
333.15 K, 7500 kPa | 1189.4 | –
333.15 K, 10000 kPa | 1208.6 | –
333.15 K, 12500 kPa | 1225.4 | –
333.15 K, 15000 kPa | 1240.4 | –
333.15 K, 17500 kPa | 1255 | –
333.15 K, 20000 kPa | 1266.6 | –
333.15 K, 22500 kPa | 1278.1 | –
333.15 K, 25003 kPa | 1288.8 | –
333.15 K, 27500 kPa | 1298.8 | –
333.15 K, 29999 kPa | 1308.2 | –
333.15 K, 32500 kPa | 1317.8 | –
333.15 K, 35000 kPa | 1326.3 | –
338.08 K, 589.4 kPa | – | 0.033
338.08 K, 696.3 kPa | – | 0.027
338.14 K, 371.5 kPa | – | 0.054
338.15 K, 177.9 kPa | – | 0.116
338.15 K, 257.7 kPa | – | 0.079
338.15 K, 492.8 kPa | – | 0.04
343.08 K, 600.4 kPa | – | 0.033
343.09 K, 377.8 kPa | – | 0.054
343.13 K, 710 kPa | – | 0.027
343.15 K, 181 kPa | – | 0.116
343.15 K, 262.4 kPa | – | 0.079
343.15 K, 501.5 kPa | – | 0.04
343.15 K, 1800 kPa | 1070 | –
343.15 K, 2000 kPa | 1074.1 | –
343.15 K, 2500 kPa | 1083.8 | –
343.15 K, 5001 kPa | 1121.1 | –
343.15 K, 7500 kPa | 1149.2 | –
343.15 K, 10001 kPa | 1172 | –
343.15 K, 12500 kPa | 1191.5 | –
343.15 K, 15000 kPa | 1208.5 | –
343.15 K, 17500 kPa | 1223.8 | –
343.15 K, 20000 kPa | 1237.6 | –
343.15 K, 22500 kPa | 1250.3 | –
343.15 K, 27500 kPa | 1273.2 | –
343.15 K, 30000 kPa | 1283.5 | –
343.15 K, 32500 kPa | 1293.3 | –
343.15 K, 35000 kPa | 1302.5 | –
343.16 K, 25000 kPa | 1262.3 | –
348.06 K, 611.4 kPa | – | 0.033
348.07 K, 383.7 kPa | – | 0.054
348.14 K, 723.7 kPa | – | 0.027
348.15 K, 183.8 kPa | – | 0.116
348.15 K, 266.6 kPa | – | 0.079
348.15 K, 510.2 kPa | – | 0.04
353.05 K, 390.1 kPa | – | 0.054
353.11 K, 622.8 kPa | – | 0.033
353.13 K, 737.3 kPa | – | 0.027
353.14 K, 20000 kPa | 1209 | –
353.15 K, 186.6 kPa | – | 0.116
353.15 K, 270.7 kPa | – | 0.079
353.15 K, 518.9 kPa | – | 0.04
353.15 K, 5000 kPa | 1070.7 | –
353.15 K, 7500 kPa | 1106.5 | –
353.15 K, 10000 kPa | 1134 | –
353.15 K, 12500 kPa | 1156.8 | –
353.15 K, 15000 kPa | 1176.3 | –
353.15 K, 17500 kPa | 1193.5 | –
353.15 K, 22500 kPa | 1223 | –
353.15 K, 25000 kPa | 1235.9 | –
353.15 K, 27500 kPa | 1247.9 | –
353.15 K, 30000 kPa | 1259 | –
353.15 K, 32502 kPa | 1269.4 | –
353.16 K, 2500 kPa | 1016.9 | –
353.16 K, 35001 kPa | 1279.2 | –
358.11 K, 397.3 kPa | – | 0.054
358.15 K, 189.5 kPa | – | 0.116
358.15 K, 274.5 kPa | – | 0.079
358.15 K, 527.6 kPa | – | 0.04
358.15 K, 750.7 kPa | – | 0.027
358.17 K, 633.7 kPa | – | 0.033
363.13 K, 764 kPa | – | 0.027
363.14 K, 278.7 kPa | – | 0.079
363.14 K, 644.4 kPa | – | 0.033
363.16 K, 192.3 kPa | – | 0.116
363.16 K, 536.1 kPa | – | 0.04
363.29 K, 404 kPa | – | 0.054
368.03 K, 409.8 kPa | – | 0.054
368.1 K, 777.4 kPa | – | 0.027
368.15 K, 194.3 kPa | – | 0.116
368.15 K, 544.7 kPa | – | 0.04
368.16 K, 282.9 kPa | – | 0.079
368.16 K, 655.3 kPa | – | 0.033
